For test [1], the target named is T1, Receptor tyrosine-protein kinase erbB-2 (Homo sapiens, UniProt P04626). Briefly: Inhibitory activity tested against protein kinase HER-2.
In test [2] the target is T2, Epidermal growth factor receptor (Homo sapiens, UniProt P00533). As to the kind of experiment: Inhibitory activity against epidermal growth factor receptor (EGFR).
Test [3] deals with T1, Receptor tyrosine-protein kinase erbB-2. Briefly: Inhibition of HER-2 ErbB2 receptor.
Test [4] has as its target T2, Epidermal growth factor receptor. Briefly: Inhibition of epidermal growth factor receptor (EGFR).

pIC50: −log10 of the molar value.

The record followed here is ChEMBL document CHEMBL1136802, “Receptor-guided alignment-based comparative 3D-QSAR studies of benzylidene malonitrile tyrphostins as EGFR and HER-2 kinase inhibitors” (J Med Chem, 2003).

The term pIC50 denotes −log10 of the IC50, conventionally taken in molar units.

T1 sequence (P04626 whole entry): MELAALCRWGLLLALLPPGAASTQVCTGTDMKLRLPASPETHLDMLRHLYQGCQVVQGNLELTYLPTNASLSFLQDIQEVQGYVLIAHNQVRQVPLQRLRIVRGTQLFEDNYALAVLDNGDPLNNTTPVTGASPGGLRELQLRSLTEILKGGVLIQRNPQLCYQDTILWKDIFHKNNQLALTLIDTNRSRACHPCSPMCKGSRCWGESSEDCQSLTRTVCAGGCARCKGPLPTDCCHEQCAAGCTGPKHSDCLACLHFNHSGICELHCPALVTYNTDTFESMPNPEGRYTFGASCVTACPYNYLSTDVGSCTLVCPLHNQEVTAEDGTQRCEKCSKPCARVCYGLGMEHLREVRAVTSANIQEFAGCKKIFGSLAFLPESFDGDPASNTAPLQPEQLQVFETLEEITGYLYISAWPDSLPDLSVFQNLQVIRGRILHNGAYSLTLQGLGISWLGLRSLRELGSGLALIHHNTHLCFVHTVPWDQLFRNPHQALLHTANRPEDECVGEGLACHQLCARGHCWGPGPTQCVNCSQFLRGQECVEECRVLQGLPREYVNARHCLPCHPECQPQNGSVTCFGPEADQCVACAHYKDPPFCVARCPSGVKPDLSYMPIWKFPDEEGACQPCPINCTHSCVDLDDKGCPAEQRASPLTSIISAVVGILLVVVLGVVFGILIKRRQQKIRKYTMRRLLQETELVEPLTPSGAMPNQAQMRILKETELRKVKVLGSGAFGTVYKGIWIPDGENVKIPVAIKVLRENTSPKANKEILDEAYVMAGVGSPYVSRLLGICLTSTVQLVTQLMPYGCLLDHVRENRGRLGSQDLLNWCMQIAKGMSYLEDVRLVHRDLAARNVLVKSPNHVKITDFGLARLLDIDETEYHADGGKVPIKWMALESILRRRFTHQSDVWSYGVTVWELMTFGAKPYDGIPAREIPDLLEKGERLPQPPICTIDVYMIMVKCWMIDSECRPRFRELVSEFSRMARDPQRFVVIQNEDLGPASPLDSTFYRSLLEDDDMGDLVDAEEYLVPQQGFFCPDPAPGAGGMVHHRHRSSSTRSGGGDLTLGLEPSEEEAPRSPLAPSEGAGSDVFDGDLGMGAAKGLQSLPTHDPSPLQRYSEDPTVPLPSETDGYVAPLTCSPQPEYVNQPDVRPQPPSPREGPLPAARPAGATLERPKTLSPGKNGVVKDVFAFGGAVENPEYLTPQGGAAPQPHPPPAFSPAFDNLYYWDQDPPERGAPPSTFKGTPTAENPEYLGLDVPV
T2 sequence (P00533 whole entry): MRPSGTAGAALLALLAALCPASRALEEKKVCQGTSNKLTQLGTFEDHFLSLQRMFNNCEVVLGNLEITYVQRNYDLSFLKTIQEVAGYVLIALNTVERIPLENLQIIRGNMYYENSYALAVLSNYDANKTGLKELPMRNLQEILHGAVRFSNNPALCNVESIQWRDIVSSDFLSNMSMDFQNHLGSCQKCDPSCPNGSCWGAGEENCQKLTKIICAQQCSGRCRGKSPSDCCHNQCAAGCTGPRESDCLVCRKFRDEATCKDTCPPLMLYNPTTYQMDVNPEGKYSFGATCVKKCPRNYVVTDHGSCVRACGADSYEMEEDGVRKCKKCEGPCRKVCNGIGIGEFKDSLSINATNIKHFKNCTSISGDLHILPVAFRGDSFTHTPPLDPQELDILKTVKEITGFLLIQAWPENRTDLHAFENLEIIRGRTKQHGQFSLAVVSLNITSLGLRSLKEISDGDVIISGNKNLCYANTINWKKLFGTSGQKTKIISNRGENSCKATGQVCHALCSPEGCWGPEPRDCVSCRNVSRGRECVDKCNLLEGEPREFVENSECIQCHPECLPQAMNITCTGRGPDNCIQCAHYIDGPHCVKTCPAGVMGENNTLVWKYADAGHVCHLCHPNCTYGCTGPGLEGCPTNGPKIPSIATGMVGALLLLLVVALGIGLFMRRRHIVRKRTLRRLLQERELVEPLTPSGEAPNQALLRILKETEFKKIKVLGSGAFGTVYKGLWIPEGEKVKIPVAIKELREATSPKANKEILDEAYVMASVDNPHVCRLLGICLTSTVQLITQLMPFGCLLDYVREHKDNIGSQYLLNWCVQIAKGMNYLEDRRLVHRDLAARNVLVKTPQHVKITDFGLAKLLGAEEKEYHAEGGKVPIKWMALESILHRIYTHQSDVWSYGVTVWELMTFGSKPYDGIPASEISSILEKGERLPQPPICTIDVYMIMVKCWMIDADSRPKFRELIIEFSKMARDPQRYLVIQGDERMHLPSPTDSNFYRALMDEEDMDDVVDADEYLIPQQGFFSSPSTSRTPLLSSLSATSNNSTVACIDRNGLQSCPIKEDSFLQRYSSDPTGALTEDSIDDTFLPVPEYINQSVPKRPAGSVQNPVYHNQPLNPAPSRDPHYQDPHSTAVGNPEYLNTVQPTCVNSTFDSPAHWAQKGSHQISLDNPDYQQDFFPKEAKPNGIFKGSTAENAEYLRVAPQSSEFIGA

On to `COc1cc(/C=C(\C#N)C(N)=O)cc(CSc2ccc(C)cc2)c1O`, for which the pIC50 in test [1] was 5.78.
Same read-out and setting: the value for `N#C/C(=C\c1ccc(O)c(O)c1)C(=O)NCCCCc1ccccc1` was 3.30.
Turning to `Cc1cc(C)c(NC(=O)/C(C#N)=C/c2ccc(O)c(O)c2)c(C)c1`, the pIC50 is 4.72 in test [2] and 4.68 in test [1].
For the compound `COc1cc(/C=C(\C#N)C(N)=O)cc(CSc2ccccc2)c1O`, in test [1], the pIC50 is 6.89.
Turning to `CC(C)(C)Oc1cc(/C=C(\C#N)C(=N)S)cc(C(C)(C)C)c1O`, the pIC50 in test [2] is 3.30; in test [1], 6.00.
As for `Cc1cc(C=C(C#N)C#N)cc(O)c1O`, in test [1], the pIC50 was 4.23.
In the case of `COc1cc(/C=C(\C#N)C(N)=O)cc(CSc2nc3cc(Cl)ccc3s2)c1O`, the pIC50 was 4.08 in test [2] and 4.82 in test [1].
`COc1cc(/C=C(\C#N)C(N)=O)cc(CSc2nc3ccccc3[nH]2)c1O` gave a pIC50 in test [1] of 5.21.
Same read-out and setting: under `COc1cc(/C=C(\C#N)C(N)=O)cc(CSc2nc3ccccc3o2)c1O` stands 5.82.
`COc1cc(/C=C(\C#N)C(N)=O)cc(SCCC(=O)O)c1O` had a pIC50 in test [3] of 4.04.
For the compound `COc1cc(/C=C(\C#N)C(N)=O)cc(CSc2cccc3ccccc23)c1O`, the negative logarithm of the IC50 (pIC50) in test [2] was 5.77; in test [1] it was 5.34.
The corresponding values for `COc1cc(C=C(C#N)C#N)cc(SCC(=O)O)c1O` are 4.27 and 5.34.
The corresponding values for `N#C/C(=C\c1ccc(O)c(O)c1)C(=O)NCc1ccc(O)cc1` are 5.52 and 5.54.
For `CCOc1ccc2sc(SCc3cc(/C=C(\C#N)C(N)=O)cc(OC)c3O)nc2c1`, the pIC50 in test [4] was 3.78.
Regarding `N#C/C(=C\c1ccc(O)c(O)c1)C(=O)c1ccc(O)c(O)c1`, in test [1], the pIC50 was 4.77.
Compound `COc1cc(C=C(C#N)C#N)cc(CS(=O)(=O)c2ccc(C)cc2)c1O` had a pIC50 in test [1] of 4.76.
On to `COc1cc(/C=C(/C#N)C(N)=O)cc(CSCc2ccc(Cl)cc2)c1O`, for which the values for the pIC50 in test [2] and in test [1] were 4.80 and 5.70, respectively.
`COc1cc(C=C(C#N)C#N)cc(C)c1O`: the negative logarithm of the IC50 (pIC50) in test [1] was 3.95.
On the same count and under the same terms, under `COc1cc(/C=C(\C#N)C(N)=O)cc(CSc2ccccc2NC(C)=O)c1O` stands 5.48.
Consider `N#C/C(=C\c1ccc(O)c(O)c1)C(=O)NCCc1ccccc1`, for which the pIC50 in test [2] is 6.21.
The same measure, in the same setting: the value for `COc1cc(/C=C(\C#N)C(N)=O)cc(SCCCC(=O)O)c1O` was 4.32.
For the compound `N#C/C(=C\c1ccc(O)c(O)c1)C(=O)c1ccc(F)cc1`, in test [1], the pIC50 is 4.89.
Same read-out and setting: under `COc1cc(/C=C(\C#N)C(N)=O)cc(CSCc2ccccc2)c1O` stands 5.00; under `COc1cc(/C=C(\C#N)C(N)=O)cc(CSCc2ccccc2Cl)c1O`, 6.60.
In test [1], `CCOC(=O)C(Cc1ccccc1)NC(=O)/C(C#N)=C/c1ccc(O)c(O)c1` (centres undefined) showed a pIC50 of 3.48.
The same measure, in the same setting: under `COc1cc(C=C(C#N)C#N)cc(CSc2ccccc2)c1O` stands 5.60; under `COc1cc(/C=C(\C#N)C(N)=O)cc(CSc2ccccc2C(=O)O)c1O`, 6.35; under `COc1cc(C=C(C#N)C#N)cc(CSc2ccccc2C(=O)O)c1O`, 5.00.
The same measure, in the same setting: the value for `COc1cc(/C=C(\C#N)C(N)=O)cc(CSc2ccccn2)c1O` was 6.15; that for `N#C/C(=C\c1cc(O)c(O)c(CSCc2ccccc2)c1)C(N)=O` was 5.99.
Turning to `COc1ccc(NC(=O)/C(C#N)=C/c2ccc(O)c(O)c2)c(OC)c1`, in test [1], the pIC50 is 3.78.
`Cc1cc(C)c(C(=O)/C(C#N)=C/c2ccc(O)c(O)c2)c(C)c1` had a pIC50 in test [2] of 4.72.
